Test results as given in US11213563B2, “Polypeptide and use thereof” (Genoimmune Therapeutics Co., Ltd., priority 2016, dated 2022).

How the values were obtained:
T2 cells = assay: LDH release assay of CD8+ T cell killing activity; format: cell-based, human; set-up: Killing efficiency: concentration or dose not given beside the values; conditions: for Killing efficiency: 4 hours; for Killing of T2 cells loaded with the mutant polypeptide by activated T cells / Killing of T2 cells loaded with the wild-type polypeptide by activated T cells: ratio of effector cells to target cells of 1:1 or 1:10 (so in the source)
Method: The mixture of cells collected in the example 3 were incubated with the T2 cells loaded with the mutant polypeptide (depicted in […], SEQ ID NO:1) or the wild-type polypeptide (depicted in […], SEQ ID NO:7), or the T2 cells without polypeptide respectively for 4 hours; after which […], cell supernatant collected from each well was individually added into 50 μL substrate mixture of LDH for catalyzation of the LDH substrate, and the absorbance at wavelengths of 490 nm and 680 nm (as a reference) is measured, where a maximum release well, a volume correction well, a medium alone well, a spontaneous release well of effector cell and a spontaneous release well of target well as different control wells, as well effector cells (T cells) and target cells (T2 cell) in different ratios as experiment wells are set in triplicate.
The killing efficiency of CD8^+ T cells to T2 cells is calculated by the following formula: Killing efficiency (%)=(experiment well−spontaneous release well of effector cell−spontaneous release well of target well+medium alone well)/(maximum release well of target well-volume correction well-spontaneous release well of target well+medium alone well)×100%.

[1] = tested on: human non-small cell lung adenocarcinoma cell line H2087-polypeptide FILDGLYSV; assay: Polypeptide + Freund's adjuvant vaccine in subcutaneous tumor-modeled NOD/SCID mice; format: in vivo; conditions: adjuvant+polypeptide 100 μg s.c., 4 immunizations; vs adjuvant alone and adjuvant+wild-type polypeptide groups
Method: (§1) After isolated with Ficoll solution from 600 to 900 ml anticoagulant peripheral blood from a healthy volunteer, the collected PBMCs in a concentration of 2×10^7 cells/0.5 ml were intraperitoneally injected into each of 300 NOD SCID mice without immune leakage, so as to reconstruct a human immune system in the NOD SCID mice, with the mice after 4 weeks selected for subsequent inoculation of the human non-small cell lung adenocarcinoma cell line H2087-polypeptide […] obtained in 6.2.
The human non-small cell lung adenocarcinoma cell line H2087-polypeptide […] (SEQ ID NO:1) obtained in 6.2 was incubated in DMEM medium containing 10% fetal calf serum, 100 U/mL penicillin and 100 U/mL streptomycin in an incubator under 37° C. and 5% CO2, and then the cells were centrifuged at 3000 rpm for collection. The collected cells were washed with sterile physiological saline three times, and then diluted appropriately. To 40 μl tumor cell suspension, 10 μl 0.4% […] was added for staining, subsequently the tumor cell suspension in a concentration of 1×10^8 cells/ml was prepared after counting under microscope. 100 μl of the tumor cell suspension was inoculated into each of the NOD/SCID mice by subcutaneous injection at 4 weeks post immune reconstruction in 6.3, with daily observation of the presence/absence of infection at inoculation sites, the increase/decrease of tumor size (in the case of presence of a tumor), and measurement of the major axis (a) and the minor axis (b) of a tumor by a vernier caliper every 2 or 3 days (where the tumor size=a×b×b/2). After 7 days from inoculation, a tumor in a size of rice grain was touchable at the inoculation site. After that, the subcutaneous tumor-modeled NOD/SCID mice (modeled with H2087-polypeptide […] (SEQ ID NO:1)) were treated with a polypeptide+complete Freund's adjuvant vaccine, a polypeptide+DCs vaccine, a lentivirus-infected DCs vaccine and a DC-CTL vaccine respectively, with the tumor size and mouse survival rate observed and recorded every 2 days.
The subcutaneous tumor-modeled NOD/SCID mice obtained in 6.4 of the example 6 were divided into 8 groups randomly as below, with 6 mice per group.
After 2 weeks, differently-immunized mice in 7 groups received respective same-dosage booster immunizations at 2 week interval for 4 times in total, with incomplete Freund's adjuvant for the latter three immunizations.
The general characteristics (including mental state, activity, response, diet, body weight and tumor growth) of the mice were observed daily, where the major axis (a) and the minor axis (b) of a tumor were measured by a vernier caliper every 2 days for calculation of tumor size according to a formula of a×b×b/2, where the mouse survival rate in a time period is calculated by the following formula: Survival rate=the number of survival mice/(the number of survival mice+the number of dead mice)×100%.

[2] = tested on: human non-small cell lung adenocarcinoma cell line H2087-polypeptide FILDGLYSV; assay: Polypeptide-specific DC-CTL vaccine in subcutaneous tumor-modeled NOD/SCID mice; format: in vivo; conditions: CTLs stimulated by DCs loaded with the polypeptide, i.v. 1×10^8 cells/mouse; vs wild-type CTL group
Method: as §1
The human non-small cell lung adenocarcinoma cell line H2087-polypeptide […] (SEQ ID NO:1) obtained in 6.2 was incubated in DMEM medium containing 10% fetal calf serum, 100 U/mL penicillin and 100 U/mL streptomycin in an incubator under 37° C. and 5% CO2, and then the cells were centrifuged at 3000 rpm for collection. The collected cells were washed with sterile physiological saline three times, and then diluted appropriately. To 40 μl tumor cell suspension, 10 μl 0.4% […] was added for staining, subsequently the tumor cell suspension in a concentration of 1×10^8 cells/ml was prepared after counting under microscope. 100 μl of the tumor cell suspension was inoculated into each of the NOD/SCID mice by subcutaneous injection at 4 weeks post immune reconstruction in 6.3, with daily observation of the presence/absence of infection at inoculation sites, the increase/decrease of tumor size (in the case of presence of a tumor), and measurement of the major axis (a) and the minor axis (b) of a tumor by a vernier caliper every 2 or 3 days (where the tumor size=a×b×b/2).
The number of T lymphocytes was counted at day 0, 7, 14 and 21 post incubation, for calculation of cell proliferation index (PI), where PI=cell number after proliferation/cell number seeded. The cytotoxic T lymphocytes (CTLs) were harvested at day 21 post incubation, which were suspended in 0.2 ml physiological saline, and then injected intravenously to the subcutaneous tumor-modeled NOD/SCID mice via the tail in an amount of 1×10^8 cells/mouse. The vital signs of the mice were observed after administration, and the major axis (a) and the minor axis (b) of a tumor were measured by a vernier caliper every 2 days for calculation of tumor size.

[3] = T cells activated by listed polypeptide + T2 cells loaded with mutant FILDGLYSV, effector:target 1:1
[4] = T cells activated by listed polypeptide + T2 cells loaded with mutant FILDGLYSV, effector:target 10:1
[5] = T cells activated by listed polypeptide + T2 cells loaded with wild-type FILDGSYSV, effector:target 1:1
[6] = T cells activated by listed polypeptide + T2 cells loaded with wild-type FILDGSYSV, effector:target 10:1

Sequence	Killing efficiency (T2 cells; [3]) [%]	Killing efficiency (T2 cells; [4]) [%]	Killing efficiency (T2 cells; [5]) [%]	Killing efficiency (T2 cells; [6]) [%]	Killing of T2 cells loaded with the mutant polypeptide by activated T cells (T2 cells)	Killing of T2 cells loaded with the wild-type polypeptide by activated T cells (T2 cells)	Mouse survival period [1]	Tumor growth [1]	Mouse survival period [2]	Tumor growth [2]
FMLDGLYSL	8.96	40.13	3.13	5.83	capable of killing	could not kill	prolonging mouse survival period effectively	inhibiting tumor growth	prolonging mouse survival period significantly	inhibiting tumor growth
FILDGLYSL [mutant polypeptide's variant, Leucine at position 9]	8.09	38.60	3.12	4.71	capable of killing	could not kill	prolonging mouse survival period effectively	inhibiting tumor growth	prolonging mouse survival period significantly	inhibiting tumor growth
FMLDGLYSV	9.15	42.10	2.37	5.63	capable of killing	could not kill	prolonging mouse survival period effectively	inhibiting tumor growth	prolonging mouse survival period significantly	inhibiting tumor growth
FLLDGLYSL [mutant polypeptide's variant, Leucine at positions 2 and 9]	7.05	35.15	3.56	6.21	capable of killing	could not kill	prolonging mouse survival period effectively	inhibiting tumor growth	prolonging mouse survival period significantly	inhibiting tumor growth
FILDGLYSV [mutant polypeptide from COL21A1, Serine at position 45 mutated into Leucine]	7.33	37.39	2.07	4.93	capable of killing	could not kill	prolonging mouse survival period effectively	inhibiting tumor growth	prolonging mouse survival period significantly	inhibiting tumor growth
FLLDGLYSV [mutant polypeptide's variant, Leucine at position 2]	8.38	39.16	2.85	5.43	capable of killing	could not kill	prolonging mouse survival period effectively	inhibiting tumor growth	prolonging mouse survival period significantly	inhibiting tumor growth
